Tests used:
[1] = test system: MCF7 Oct3/4-GFP+ CSC cells; assay: CSC-specific inhibitory activity test, MCF7; assay type: cell-based; details: 7 nM, FIG. 14C
From the text: (§1) FIG. 14A-E. Testing various chemical compounds for CSC-specific inhibitory activity in non-stem MCF7, MDA-MB231 or MDA-MB453 or in Oct3/4-GFP+ CSC cells of those same lines. CSC are denoted by solid circles ([…])_ and non-stem cells are denoted by solid squares (▪).
(§2) 1280 compounds from the Library of Pharmacologically Active Compounds (“LOPAC”) were screened for activity against non-stem cell and Oct3/4-GFP+ CSCs prepared from three breast cancer cell lines, MCF7, MB231 and MB453 using methods set forth above.

[2] = test system: MDA-MB453 Oct3/4-GFP+ CSC cells; assay: CSC-specific inhibitory activity test, MDA-MB453; assay type: cell-based; details: 10 nM, FIG. 14D and E
From the text: as §1, §2

[3] = test system: MDA-MB231 Oct3/4-GFP+ CSC cells; assay: CSC-specific inhibitory activity test, MDA-MB231; assay type: cell-based; details: 4 μM, FIG. 14B
From the text: as §1, §2

[4] = test system: MCF7 cells and Oct3/4-GFP+MCF7 cells; assay: Hoechst 33342 side population (SP) analysis; assay type: cell-based; details: 20 μM Reserpine; MCF7 and Oct3/4-GFP+MCF7 cells; Hoechst 33342 exclusion
From the text: In other studies, Oct3/4-GFP+MCF7 cells were examined by qRT-PCR for expression of the breast cancer CSC markers CD133 and Oct3/4. After normalizing to GAPDH, the ratios of these transcripts in Oct3/4-GFP+MCF7 cells and non-CSC-MCF7 cells were 6.3 for CD133 and 2.5 for Oct3/4. […] The SP is due to CSCs ability to exclude the dye Hoechst 33342 and reflects high expression of […] transporters such as MDR1 and BRCP (30). […] These fractions could also be reduced by >70% following exposure to 20 μM Reserpine, which inhibits ABC transporters (30). Moreover, the overall mean fluorescence intensity of the entire Oct3/4-GFP+MCF population was two-fold lower than that of the MCF7 population. Thus, based on independent qRT-PCR assessments of CSC gene expression profiles and on uptake/exclusion of Hoechst 33342, one can conclude that the Oct3/4-GFP+MCF7 population consists of highly enriched and stable cells that are unable to differentiate into TACs.

[5] = test system: Oct3/4-GFP(+) MCF7 cells vs control Oct3/4-GFP(-) MCF cells; assay: Initial small molecule screen in 384 well plates, CellTiter-Blue cell viability; assay type: cell-based; details: 5 μM, 72 hours
Description: Experiments were performed to determine whether the growth of Oct3/4-GFP(+) MCF cells could be inhibited with novel small molecules. Oct3/4-GFP(+) MCF7 cells were used as the target population. Control cells consisted of Oct3/4-GFP(−)MCF cells (lacking an Oct3/4-GFP cassette) that were infected with a GFP-expressing lentivirus as a way of controlling for GFP expression. Initial screenings were performed in 384 well plates on triplicate samples as follows.
(§3) First, the cell cultures were prepared by trypsinizing and resuspending the cells in MCF7 culture medium (alpha MEM, 10% FBS, 2 mM Glutamine, 1 mM Sodium Pyruvate, 1 mM non-essential amino acids, 100 U/ml Penicillin/Streptomycin) at a density of 4×10^4/ml. The screen was then performed by (1) diluting compounds to 30 μM using alpha MEM; (2) adding […] of compound-containing solution to each well (which will result in a final concentration of 5 μM); (3) adding 25 μl of cell suspension to each well (1000 cells/well); and (4) incubating the cells with compounds for 72 hours at 37° C., 5% CO2. Cell viability was then assessed using the CellTiter-Blue® assay by Promega, modified as follows. Since there were 30 ul medium in each well, 6 μl CellTiter-Blue was added to each well. The plates were then incubated at 37° C. for 2.5 hours. The plates were then read on a SpectraMax M5 Microplate Reader using the wavelength of excitation 560 nm/emission 590 nm.
(§4) Then, a secondary set of experiments were performed in 12 well plates in which 2000 cells/well were initially seeded and allowed to attach for one day. The following day (day 0), the medium was replaced with fresh medium containing 0.8 μM of each of these three compounds. Cell counts were then performed manually on triplicate wells over a period of three days. Oct3/4-GFP+ MCF7 cells are represented by the lower, dashed curve in all three panels.

[6] = test system: Oct3/4-GFP+ MCF7 cells; assay: Secondary growth experiment in 12 well plates, manual cell counts; assay type: cell-based; details: 0.8 μM, cell counts over three days, FIG. 11
Description: as §4

[7] = test system: non-stem cell and Oct3/4-GFP+ CSCs prepared from three breast cancer cell lines, MCF7, MB231 and MB453; assay: LOPAC screen for CSC-specific inhibitory activity; assay type: cell-based; details: CSCs from at least one of MCF7, MB231, MB453; FIG. 14A
Description: as §1, §3, §2

[8] = test system: MCF7 cells and Oct3/4-GFP+MCF7 CSCs; assay: Differential chemotherapeutic responses, viable adherent cells by trypan blue exclusion; assay type: cell-based; details: number of viable adherent cells over time, triplicate plates
Description: FIG. 6. Differential chemotherapeutic responses of MCF7 and Oct3/4-GFP+MCF7 cells. 10^5 unfractionated, MCF7 cells (dotted line) or Oct3/4GFP+MCF7 cells (broken line) were seeded into 6 well plates and allowed to achieve ca. 30-50% confluence. The indicated concentrations of adriamycin, etoposide, 5-fluorouracil, cis-platinum, methotrexate, and taxol were then added (day 0). The total number of viable adherent cells was then determined at the indicated times by trypan blue exclusion. […] Note that in most cases Oct4/4-GFP+MCF7 actually grew in the presence of all agents. These experiments were repeated at least two additional times with similar outcomes.
5. Differential chemosensitivities of Oct3/4-GFP+MCF7 cells. It is believed that CSCs are more resistant to chemotherapeutic agents than TACs, thus at least partly accounting for the propensity of many tumors to relapse after an initial response (12,27,36). To test this idea, MCF7 cells and Oct3/4-GFP+MCF7 CSCs were exposed to six different chemotherapeutic agents commonly employed to treat breast cancer.

[9] = test system: topoisomerase I; assay: Doxycycline-induced shRNA knockdown of topoisomerase I expression (mRNA, Western blot); assay type: cell-based, human; details: FIGS. 17 and 18
From the text: FIG. 17. Topoisomerase I expression in topoisomerase I shRNA-treated cells.
FIG. 18. Western blot analysis of topoisomerase I expression in CSC and non-stem cell versions of MCF7, MDA-MB453, BTL12 and MDA-MB231 cells with or without doxycycline-induced (“dox”) shRNA knockdown.
(§5) To test this hypothesis further, small hairpin RNA (shRNA) was used to knockdown topoisomerase I using a conditional shRNA expression system (pTRIPZ vector-Origene, Inc.), in which expression of the shRNA is induced by doxycycline. The shRNA used had the sequence: […] […] (SEQ ID NO:10, NM_003286).

[10] = test system: non-stem and CSC versions of MCF7, MDA-MB453 and BTL12 cells; assay: Effect of topoisomerase I shRNA knockdown on cultures of non-stem and CSC cells; assay type: cell-based; details: doxycycline-induced, FIG. 20A-C
From the text: FIG. 20A-C. Evaluation of the effect of doxycycline-inducible shRNA targeting topoisomerase I in non-stem MCF7, MDA-MB453 or BTL12 or in Oct3/4-GFP+ CSC cells of those same lines. (A) MCF7. (B) MDA-MB453. (C) BTL12.
as §5

[11] = test system: tumor xenografts from non-stem and CSC MCF7 cells; assay: Effect of topoisomerase I shRNA knockdown on tumor xenografts; assay type: in vivo; details: doxycycline-induced knockdown; xenografts in nude mice; FIG. 21A-B
From the text: FIG. 21A-B. Evaluation of the effect of doxycycline-inducible shRNA targeting topoisomerase I in tumor xenografts generated from (A) non-stem MCF7 cells or (B) Oct3/4-GFP(+) MCF7 CSC cells.
as §5

NC(=S)N/N=C/c1ccc([N+](=O)[O-])s1 [NSC725] was tested, and the CSC-selective inhibitory activity [1] was “CSC-selective inhibitory activity” and the CSC-selective inhibitory activity [2] was “CSC-selective activity”.

For Nc1nc(N)c2[nH]cnc2n1 [NSC743], the CSC-selective inhibitory activity [2] was “CSC-selective activity”.

With O=C1C=C(NCCN2CCOCC2)C(=O)c2ncccc21 [JUN1111] the CSC-selective inhibitory activity [3] was “CSC-selective inhibitory activity”.

With COC(=O)[C@H]1[C@H]2C[C@@H]3c4[nH]c5cc(OC)ccc5c4CCN3C[C@H]2C[C@@H](OC(=O)c2cc(OC)c(OC)c(OC)c2)[C@@H]1OC [Reserpine] the “reduction of side population (SP) fractions” value [4] was greater than 70%.

Cl.NCC1OC(C23CC4CC(CC(C4)C2)C3)Cc2c1ccc(O)c2O (stereo not shown) [A77636, 3-(1′-adamantyl)-1-aminomethyl-3,4-dihydro-5,6-dihydroxy-1H-2-benzopyran hydrochloride] was tested, and the “selectivity for Oct3/4-GFP(+) MCF7 cells in initial screening” value (shortened to “selectivity for Oct3/4-GFP(+) MCF7 cells”) [5] was “potentially selective agents”, the “selective inhibition of Oct3/4-GFP+ MCF cells” value [6] was “Selective inhibition” and the “selective inhibition of growth of CSCs” value [7] was “selectively inhibited growth of CSCs”.

With CC1(C)CCC2=C(O1)c1ccccc1C(=O)C2=O [β-lapachone] the “selective inhibition of growth of CSCs” value [7] was “selectively inhibited growth of CSCs”.

CC(=O)O[C@H]1C(=O)[C@@]2(C)[C@H]([C@H](OC(=O)c3ccccc3)[C@]3(O)C[C@H](OC(=O)[C@H](O)[C@@H](NC(=O)c4ccccc4)c4ccccc4)C(C)=C1C3(C)C)[C@]1(OC(C)=O)CO[C@@H]1C[C@@H]2O [taxol] was tested, and the “sensitivity of Oct3/4-GFP+MCF7 cells relative to MCF7 cells” value [8] was “significantly more sensitive”.

CC(=O)c1c(O)c(C)c(O)c(Cc2c(O)c3c(c(C(=O)/C=C/c4ccccc4)c2O)OC(C)(C)C=C3)c1O [Rottlerin, (Z)-1-[6-[(3-acetyl-2,4,6-trihydroxy-5-methylphenyl)methyl]-5,7-dihydroxy-2,2-dimethylchromen-8-yl]-3-phenylpro-2-en-1-one] was tested, and the “selectivity for Oct3/4-GFP(+) MCF7 cells” value [5] was “potentially selective agents”, the “selective inhibition of Oct3/4-GFP+ MCF cells” value [6] was “Selective inhibition” and the “selective inhibition of growth of CSCs” value [7] was “selectively inhibited growth of CSCs”.

With CCn1cnc2c(Nc3cccc(Cl)c3)nc(N[C@@H]3CCCC[C@@H]3N)nc21.Cl (relative stereo) [CGP74514A, N2-(cis-2-aminocyclohexyl)-N6-(3-chlorophenyl)-9-ethyl-9H-purine-2,6-diamine hydrochloride] the “selectivity for Oct3/4-GFP(+) MCF7 cells” value [5] was “potentially selective agents” and the “selective inhibition of Oct3/4-GFP+ MCF cells” value [6] was “Selective inhibition”.

B1: shRNA: doxycycline-inducible small hairpin RNA homologous to the topoisomerase I gene, SEQ ID NO:10, pTRIPZ vector (nucleic acid)
chain: TGCTGTTGACAGTGAGCGCGCTGATTATAAACCTAAGAAATAGTGAAGCCACAGATGTATTTCTTAGGTTTATAATCAGCATGCCTACTGCCTCGGA
With B1 the “topoisomerase I mRNA and protein expression” value [9] was “successfully knocked-down mRNA and protein expression”, the “effect of knockdown on CSCs relative to non-stem cells (viable cells)” value [10] was “more profound on CSCs relative to their non-stem cell counterparts” and the “reduction in tumor size, CSC-generated vs non-stem tumors” value [11] was “proportionally greater for the CSC-generated tumors”. The tumor size [11] was “decreased the size of tumors resulting from both non-stem and CSC MCF7 cells”.

From US20110244472A1, “Cancer stem cell immortalization” (priority 2008, published 2011)
